In the first assay the test system is HCV replicon 1A. Description: microbe, parasite or virus in culture. It counts as cell-based, Hepatitis C virus (HCV). Conditions: Hepatitis C virus, replicon 1A; Replicon Assay A. How it is done: (§1) To measure cell-based anti-HCV activity of compounds of the present invention, two complimentary assays were employed using various replicons. In the first assay (“Replicon Assay A”), replicon cells were seeded at 2000 cells/well in 384-well 384-well flat bottom tissue culture treated clear bottom plate (Corning 3707) in the presence of the test compound. […] The final concentration of DMSO was 0.5%. Fetal bovine serum was 5%, in the assay media. Cells were harvested on day 3 by removing media and washing the cells with a suitable wash buffer. The cells are lysed with the addition of 1× Qiagen lysis buffer (Cat #1062731). The replicon RNA level was measured using real time PCR (TaqMan® EZ RT-PCR, Applied Biosystems 403028) with the following primers and probes: […]
(§2) Cyclophilin RNA was used as endogenous control and was amplified in the same reaction as NS5B (multiplex PCR). The real-time RT-PCR reactions were run on ABI PRISM 7900HT Sequence Detection System using the following program: 50° C. for 2 minutes, 60° C. for 30 minutes, 95° C. for 5 minutes, 40 cycles of 94° C. for 20 sec, 55° C. for 1 minutes.
(§3) The amount of HCV replicon RNA per cell is quantified using a linear regression curve for a known nanogram (ng) amount of HCV replicon total RNA. This is established by plotting the Cycle Threshold values (Ct) from the Neo probe and primer set versus the log (ng) for each HCV replicon total RNA standard. The amount of HCV RNA for each replicon sample is calculated by taking the sample's Ct value, minus the line intercept, divided by the slope of the line. Similarly, the amount of Cyclophilin mRNA per cell is also quantified using a linear regression curve for a known nanogram (ng) amount of HCV replicon total RNA. Again, this is established by plotting the Cycle Threshold values (Ct) from the Cyclophilin probe and primer set versus the log (ng) for each HCV replicon total RNA standard.
(§4) Data for replicons 1A, 1AY93H and 2B were obtained using Replicon Assay A and data for replicons 1AQ30D and 1B were obtained using Replicon Assay B.
(In general: A replicon is a self-replicating genome or part of one, used to study replication in cells.)
As to `COC(=O)NC(C(=O)N1CCC[C@H]1c1ncc(-c2ccc3c(c2)cc2n3C(c3ccc(C4CC4)s3)Oc3cc(-c4cnc([C@@H]5CCCN5C(=O)[C@@H](NC(=O)OC)C(C)C)[nH]4)cc(F)c3-2)[nH]1)C1CC2CCC(C1)O2` (single isomer, unassigned) [Compound 180], the IC50 was 0.0025 nM.

The same assay, now with this note: replicon 1A; Replicon Assay A.
As to `CCc1ccc(C2Oc3cc(-c4cnc([C@@H]5CCCN5C(=O)C(NC(=O)OC)C5C[C@@H](C)O[C@@H](C)C5)[nH]4)cc(F)c3-c3cc4cc(-c5cnc([C@@H]6CCCN6C(=O)[C@@H](NC(=O)OC)C(C)C)[nH]5)ccc4n32)s1` (single isomer, unassigned) [Compound 155], it took 0.167 nM to reach half-maximal inhibition (IC50).

Compound `CCc1ccc(C2Oc3cc(-c4cnc([C@@H]5CCCN5C(=O)C(NC(=O)OC)C5CCOC(C)(C)C5)[nH]4)cc(F)c3-c3cc4cc(-c5cnc([C@@H]6CCCN6C(=O)[C@@H](NC(=O)OC)C(C)C)[nH]5)ccc4n32)s1` (single isomer, unassigned) [Compound 161] registered an IC50 of 0.0586 nM.

`COC(=O)NC(C(=O)N1CCC[C@H]1c1ncc(-c2ccc3c(c2)cc2n3C(c3ccc(C(C)C)s3)Oc3cc(-c4cnc([C@@H]5CCCN5C(=O)[C@@H](NC(=O)OC)C(C)C)[nH]4)cc(F)c3-2)[nH]1)C1C[C@@H](C)O[C@@H](C)C1` (single isomer, unassigned) [Compound 233] came in with an IC50 of 0.066 nM.

`COC(=O)NC(C(=O)N1CCC[C@H]1c1ncc(-c2ccc3c(c2)cc2n3C(c3ccc(C4CC4)s3)Oc3cc(-c4cnc([C@@H]5CCCN5C(=O)[C@@H](NC(=O)OC)C(C)C)[nH]4)cc(F)c3-2)[nH]1)C1CN(C(=O)C2CC2)C1` (single isomer, unassigned) [Compound 268] showed an IC50 of 0.045 nM.

`COC(=O)NC(C(=O)N1CCC[C@H]1c1ncc(-c2ccc3c(c2)cc2n3C(c3ccc(C4CC4)s3)Oc3cc(-c4cnc([C@@H]5CCCN5C(=O)[C@@H](NC(=O)OC)C(C)C)[nH]4)cc(F)c3-2)[nH]1)C1CN(C(=O)C2CC2)C1` (single isomer, unassigned) [Compound 270] returned an IC50 of 0.62 nM.

`CCc1ccc(C2Oc3cc(-c4cnc([C@@H]5CCCN5C(=O)C(NC(=O)OC)C5CCOC(C)(C)C5)[nH]4)cc(F)c3-c3cc4cc(-c5cnc([C@@H]6CCCN6C(=O)C(NC(=O)OC)C6CCOC(C)(C)C6)[nH]5)ccc4n32)s1` (single isomer, unassigned) [Compound 293] displayed a 50% inhibitory concentration (IC50) of more than 1.67 nM.

For `CCc1ccc(C2Oc3cc(-c4cnc([C@@H]5CCCN5C(=O)C(NC(=O)OC)C5CCOC(C)(C)C5)[nH]4)cc(F)c3-c3cc4cc(-c5cnc([C@@H]6CCCN6C(=O)C(NC(=O)OC)C6CCOC(C)(C)C6)[nH]5)ccc4n32)s1` (single isomer, unassigned) [Compound 294], the concentration for half-maximal inhibition (IC50) is more than 1.67 nM.

For the next assay, the system named is HCV replicon 2B. Description: microbe, parasite or virus in culture. It counts as cell-based, Hepatitis C virus (HCV). The note with it: Hepatitis C virus, read-out: 2B IC50 (nM), replicon 2B; Replicon Assay A. The procedure:
as §1, §2, §3, §4
Take `COC(=O)NC(C(=O)N1CCC[C@H]1c1ncc(-c2ccc3c(c2)cc2n3C(c3cc4c(s3)CCC4)Oc3cc(-c4cnc([C@@H]5CCCN5C(=O)[C@@H](NC(=O)OC)C(C)C)[nH]4)cc(F)c3-2)[nH]1)C1C[C@@H](C)O[C@@H](C)C1` (single isomer, unassigned) [Compound 204]: the IC50 came out at 0.26 nM.

The same assay, now with this note: Hepatitis C virus, read-out: 2B IC50, HCV replicon 2B; Replicon Assay A.
For the compound `COC(=O)NC(C(=O)N1CCC[C@H]1c1ncc(-c2ccc3c(c2)cc2n3C(c3ccc(CC(F)(F)F)s3)Oc3cc(-c4cnc([C@@H]5CCCN5C(=O)[C@@H](NC(=O)OC)C(C)C)[nH]4)cc(F)c3-2)[nH]1)C1CCOC(C)(C)C1` (single isomer, unassigned) [Compound 425], the IC50 was found to be 0.011 nM.

Turning to `COC(=O)NC(C(=O)N1CCC[C@H]1c1ncc(-c2ccc3c(c2)cc2n3C(c3ccc(C4CC4)s3)Oc3cc(-c4cnc([C@@H]5CCCN5C(=O)[C@@H](NC(=O)OC)C(C)C)[nH]4)cc(C)c3-2)[nH]1)C1CCOC(C)(C)C1` (single isomer, unassigned) [Compound 565], the IC50 came out at 0.17 nM.

Staying with this assay, now noted: read-out: 2B IC50; HCV replicon 2B; Replicon Assay A.
Turning to `CCCc1ccc(C2Oc3cc(-c4cnc([C@@H]5CCCN5C(=O)[C@@H](NC(=O)OC)C(C)C)[nH]4)cc(F)c3-c3cc4cc(-c5cnc([C@@H]6C[C@H]7C[C@H]7N6C(=O)[C@@H](NC(=O)OC)C(C)C)[nH]5)ccc4n32)s1` (single isomer, unassigned) [Compound 561], the 50% inhibitory concentration (IC50) was 0.23 nM.

Turning to `CCCc1ccc(C2Oc3cc(-c4cnc([C@@H]5CCCN5C(=O)[C@@H](NC(=O)OC)C(C)C)[nH]4)cc(F)c3-c3cc4cc(-c5cnc([C@@H]6C[C@H]7C[C@H]7N6C(=O)[C@@H](NC(=O)OC)C(C)C)[nH]5)ccc4n32)s1` (single isomer, unassigned) [Compound 562], the IC50 stood at 0.754 nM.

Turning to `CCCc1ccc(C2Oc3cc(-c4cnc([C@@H]5CCCN5C(=O)[C@@H](NC(=O)OC)C(C)C)[nH]4)cc(F)c3-c3cc4cc(-c5cnc([C@@H]6CCCN6C(=O)C(NC(=O)OC)C6CCOC(C)(C)C6)[nH]5)ccc4n32)s1` (single isomer, unassigned) [Compound 566], the IC50 was 0.31 nM.

For the compound `CCCc1ccc(C2Oc3cc(-c4cnc([C@@H]5CCCN5C(=O)[C@@H](NC(=O)OC)C(C)C)[nH]4)cc(F)c3-c3cc4cc(-c5cnc([C@@H]6CCCN6C(=O)C(NC(=O)OC)C6CCOC(C)(C)C6)[nH]5)ccc4n32)s1` (single isomer, unassigned) [Compound 567], the IC50 was determined as 0.011 nM.

In the case of `C=C(C)C1Oc2cc(-c3cnc([C@@H]4CCCN4C(=O)[C@@H](N)C(C)C)[nH]3)cc(F)c2-c2cc3cc(-c4cnc([C@@H]5C[C@H]6C[C@H]6N5C(C)=O)[nH]4)ccc3n21` (single isomer, unassigned) [Compound 571], the IC50 is 0.087 nM.

As to `C=C(C)C1Oc2cc(-c3cnc([C@@H]4CCCN4C(=O)[C@@H](N)C(C)C)[nH]3)cc(F)c2-c2cc3cc(-c4cnc([C@@H]5C[C@H]6C[C@H]6N5C(C)=O)[nH]4)ccc3n21` (single isomer, unassigned) [Compound 572], the IC50 was 0.031 nM.

For the compound `COC(=O)NC(C(=O)N1[C@@H]2C[C@@H]2C[C@H]1c1ncc(-c2ccc3c(c2)cc2n3C(c3cc4ccccc4s3)Oc3cc(-c4cnc([C@@H]5CCCN5C(=O)[C@@H](NC(=O)OC)C(C)C)[nH]4)cc(F)c3-2)[nH]1)C1C[C@@H](C)O[C@@H](C)C1` (single isomer, unassigned) [Compound 646], the IC50 turned out to be 0.173 nM.

The same assay, now with this note: read-out: 2B IC50; replicon 2B; Replicon Assay A.
Take `COC(=O)N[C@H](C(=O)N1CCC[C@H]1c1ncc(-c2cc(F)c3c(c2)OC(c2ccc(C4CC4(F)F)s2)n2c-3cc3cc(-c4cnc([C@@H]5CCCN5C(=O)[C@@H](NC(=O)OC)C(C)C)[nH]4)ccc32)[nH]1)C(C)C` (single isomer, unassigned) [Compound 116]: the IC50 stood at 1.85 nM.

Regarding `COC(=O)N[C@H](C(=O)N1CCC[C@H]1c1ncc(-c2cc(F)c3c(c2)OC(c2ccc(C4CC4(F)F)s2)n2c-3cc3cc(-c4cnc([C@@H]5CCCN5C(=O)[C@@H](NC(=O)OC)C(C)C)[nH]4)ccc32)[nH]1)C(C)C` (single isomer, unassigned) [Compound 117], the IC50 came to 0.028 nM.

On to `COC(=O)N[C@H](C(=O)N1CCC[C@H]1c1ncc(-c2cc(F)c3c(c2)OC(c2ccc(C4CC4(F)F)s2)n2c-3cc3cc(-c4cnc([C@@H]5CCCN5C(=O)[C@@H](NC(=O)OC)C(C)C)[nH]4)ccc32)[nH]1)C(C)C` (single isomer, unassigned) [Compound 119], for which the IC50 stood at 0.073 nM.

Turning to `COC(=O)NC(C(=O)N1[C@@H]2C[C@@H]2C[C@H]1c1ncc(-c2ccc3c(c2)cc2n3C(c3ccc(C(F)F)s3)Oc3cc(-c4cnc([C@@H]5CCCN5C(=O)[C@@H](NC(=O)OC)C(C)C)[nH]4)cc(F)c3-2)[nH]1)C1C[C@@H](C)O[C@@H](C)C1` (single isomer, unassigned) [Compound 285], the IC50 came to 0.79 nM.

For orientation: IC50 means the concentration that gives 50% inhibition.

The record behind these values is patent US20160257697A1, “THIOPHENE-SUBSTITUTED TETRACYCLIC COMPOUNDS AND METHODS OFUSE THEREOF FOR THE TREATMENT OF VIRAL DISEASES” (priority 2013, published 2016).
